Measurements published in PMC12395388 (Regulatory toxicology and pharmacology : RTP, 2024).
Like-named read-outs stand apart in the source and are kept apart here.

Columns and labels:
[1] = parent drug with nitrite; ref Ozhan and Alpertunga, 2003; cited from earlier work
[2] = Solubility in Ames test vehicles; format: physicochemical
[3] = test system: Salmonella typhimurium TA1535; test: Preincubation Ames test, strain TA1535; format: cell-based; conditions: for Ames response when tested as an aqueous suspension: 60 min preincubation, TA1535; for Effectiveness of time of preincubation for most effective S9: 30 vs 60 min; for Direct-acting mutagenicity in TA1535: no exogenous metabolic activation (no S9); for S9-mediated mutagenicity in TA1535: with S9 activation; for Mutagenic response in TA1535: any activation condition and preincubation time
[4] = ref Wogan et al., 1975, cited from earlier work
[5] = test system: Ames tester strains; conditions: cited from earlier work; for Ames response (all S9-mediated except where noted): published/posted results, ref representative Ames references of Table 2
[6] = published by FDA as of September 4, 2024, ref FDA, 2024a; cited from earlier work
[7] = PC1 most potent, PC5 least potent; ref FDA, 2024a; cited from earlier work
[8] = test system: Salmonella typhimurium tester strains TA98, TA100, TA1535, and TA1537, and Escherichia coli strain WP2 uvrA (pKM101); test: Preincubation Ames test, five tester strains; format: cell-based; conditions: for Specificity for G:C or A:T target tester strains: G:C target: TA98, TA100, TA1535, TA1537, A:T target: WP2 uvrA (pKM101)
[9] = test system: Salmonella typhimurium TA100; test: Preincubation Ames test, strain TA100; format: cell-based; conditions: for Effectiveness of time of preincubation for most effective S9: strain TA100, 30 vs 60 min; for S9-mediated mutagenicity in TA100: with S9 activation
[10] = test system: E. coli WP2 uvrA (pKM101); test: Preincubation Ames test, strain WP2 uvrA; format: cell-based, Escherichia coli; conditions: for Effectiveness of time of preincubation for most effective S9: strain WP2 uvrA (pKM101), 30 vs 60 min; for Mutagenic response in WP2 uvrA (pKM101): any activation condition and preincubation time
[11] = ref IARC (https://monographs.iarc.who.int/agents-classified-by-the-iarc/); cited from earlier work
[12] = ref as given in Table 2 Notes (Kerklaan et al., 1981; Zeiger et al., 1972); cited from earlier work
[13] = test system: Drosophila; conditions: cited from earlier work; for Recombination in Drosophila: ref Vogel and Nivard, 1993
[14] = species as in value; ref as given in Table 2 Notes; cited from earlier work
[15] = test system: CHO, V79, L5178Y/Tk+/−, TK6, HepaRG cells; conditions: cited from earlier work
[16] = test system: yeast; conditions: cited from earlier work
[17] = test system: E. coli WU3610; conditions: ref Elespuru and Lijinsky, 1976; cited from earlier work
[18] = test system: Salmonella typhimurium TA1537; test: Preincubation Ames test, strain TA1537
[19] = in vivo; cited from earlier work
[20] = cell lines as named in the value, ref as given in Table 2 Notes
[21] = listed as 1-Methyl-4-nitrosopiperizine
[22] = listed as 1-methyl-4-nitrosopiperizine
[23] = ref Larimer et al., 1980, Mehta and Von Borstel, 1984
[24] = listed as N-nitroso-methylphenylamine

In the case of CNCCC(Oc1ccc(C(F)(F)F)cc1)c1ccccc1 (centres unmarked) [Fluoxetine], the “Genotoxicity under nitrosating conditions” value [1] is given as “genotoxic under nitrosating conditions”.
With O=NN1CCN(c2cc3c(cc2F)c(=O)c(C(=O)O)cn3C2CC2)CC1 [NDSRI-24, 1-Cyclopropyl-6-fluoro-7-(4-nitrosopiperazin-1-yl)-4-oxoquinoline-3-carboxylic acid] the “Solubility in test vehicles” value [2] was “poorly soluble in all vehicles”.
For Nc1nc2ncc(CN(N=O)c3ccc(C(=O)NC(CCC(=O)O)C(=O)O)cc3)nc2c(=O)[nH]1 (centres unmarked) [NDSRI-28, 2-[[4-[(2-Amino-4-oxo-3 H-pteridin-6-yl)methyl-nitrosoamino)benzoyl]amino]pentanedioic acid], the “Ames response when tested as an aqueous suspension” value [3] is listed as “d Weakly positive/equivocal when tested as an aqueous suspension: see text and Supplementary Material”, the “Ames response when tested as an aqueous suspension” value ([3]; listed as N-nitroso-folic acid) is listed as “equivocal or weakly positive” and the “Lung tumors in neonatal mouse cancer bioassay” value [4] is listed as “Weak positive for lung tumors in neonatal mouse assay ([Wogan et al., 1975])”. For the same molecule, the “Lung tumors in neonatal mouse cancer bioassay” value ([4]; listed as N-nitroso-folic acid) was “induced lung tumors”, the “Ames response (all S9-mediated except where noted)” value [5] was “Positive” and the AI limit [6] was 1500 ng/day. For the same molecule, the “CPCA Potency Category (PC)” value [7] was “PC4”.
For Fc1ccc([C@@H]2CCNC[C@H]2COc2ccc3c(c2)OCO3)cc1 [Paroxetine], the “Genotoxicity under nitrosating conditions” value [1] is given as “Paroxetine genotoxic under nitrosating conditions ([Ozhan and Alpertunga, 2003])”.
For CN(C)N=O [SM-1, N,N-Dimethylnitrous amide], the “Effect of length of preincubation on positive responses” value ([8]; 30 min vs 60 min, over all strains, listed as NDMA) was “benefited from a preincubation of 60 min compared with 30 min”, the “Effectiveness of time of preincubation for most effective S9” value (“Effectiveness of time of preincubation” below) ([3]; strain TA1535) was 60min >30min and the “Effectiveness of time of preincubation” value [9] was 60min >30min. For the same molecule, the “Effectiveness of time of preincubation” value [10] was 60min = 30min, the IARC classification [11] was “Group 2A” and the “Mutagenicity in host-mediated assay” value [12] was “Mutagenic”. The “Recombination in Drosophila” value [13] was “recombinogen in Drosophila”, the “Ames response (all S9-mediated except where noted)” value [5] was “Positive; preincubation more sensitive” and the AI limit [6] was 96 ng/day. For the same molecule, the “Mutagenicity in TGR assay” value [14] was “Mutagenic in mouse and rat TGR” and the “Mutagenicity/genotoxicity in mammalian cells in vitro” value (from here on “Mutagenicity/genotoxicity … in vitro”) [15, 20] was “mutagenic/genotoxic in CHO, V79, L5178Y/Tk^+/−, HepaRG cells”.
For CCN(CC)N=O [SM-2, N,N-Diethylnitrous amide], the “Mutagenicity in host-mediated assay” value [12] is given as “Mutagenic”, the “Recombination in Drosophila” value [13] is given as “recombinogen in Drosophila” and the “Ames response (all S9-mediated except where noted)” value [5] is given as “Positive; preincubation more sensitive”. For the same molecule, the AI limit [6] was 26.5 ng/day, the “Mutagenicity in TGR assay” value [14] was “Mutagenic in rat and mouse TGR, error-corrected sequencing” and the “Mutagenicity/genotoxicity … in vitro” value [15, 20] was “mutagenic/genotoxic in CHO, L5178Y/Tk^+/−, V79, TK6, HepaRG cells”.
For CN1CCN(N=O)CC1 [SM-4, 1-Methyl-4-nitrosopiperazine], the “Specificity for G:C or A:T target tester strains” value [8] was “positive only in G:C detecting strains”, the “Direct-acting mutagenicity in TA1535” value [3] was “a Equivocal direct-acting mutagen in TA1535” and the “Direct-acting mutagenicity in TA1535” value [3, 21] was “weakly positive direct-acting mutagen in two of four assays”. For the same molecule, the “Direct-acting mutagenicity in TA1535” value [3, 22] was “classified as ‘equivocal’ as a direct-acting mutagen”, the “Effectiveness of time of preincubation” value ([3]; strain TA1535) was 60min = 30min and the “S9-mediated mutagenicity in TA1535” value [3, 21] was “strong S9-mediated mutagen”. For the same molecule, the “S9-mediated mutagenicity in TA1535” value [3, 22] was “strongly positive”, the “Effectiveness of time of preincubation” value [9] was 60min = 30min and the “S9-mediated mutagenicity in TA100” value [9, 21] was “strong S9-mediated mutagen”. For the same molecule, the “S9-mediated mutagenicity in TA100” value [9, 22] was “strongly positive”, the “Mutagenicity in Drosophila” value ([13]; ref Nix et al., 1980) was “Mutagenic in yeast, Drosophila, V79 cells, host-mediated assay” and the “Recombination in Drosophila” value [13] was “recombinogen in Drosophila”. The “Ames response (all S9-mediated except where noted)” value [5] was “Positive”, the “Ames response with human liver S9” value ([5]; ref Sabadie et al., 1980) was “Ames positive with human liver S9” and the AI limit [6] was 400 ng/day. The “CPCA Potency Category (PC)” value [7] was “PC3”, the “Mutagenicity/genotoxicity … in vitro” value [15, 20] was “Mutagenic in yeast, Drosophila, V79 cells, host-mediated assay” and the “Direct-acting mutagenicity in V79 cells” value ([15]; only summary results provided, ref Kuroki et al., 1977) was “does not appear to be a direct-acting mutagen”. For the same molecule, the “Direct-acting mutagenicity in yeast” value ([16]; only summary results provided, ref Larimer et al., 1980) was “does not appear to be a direct-acting mutagen”, the Mutagenicity/genotoxicity in yeast [16, 23] was “Mutagenic in yeast, Drosophila, V79 cells, host-mediated assay” and the “Mutagenicity in E. coli WU3610” value [17] was “not mutagenic in E. coli WU3610”.
With CN(N=O)c1ccccc1 [SM-6, N-Methyl-N-phenylnitrous amide] the “Mutagenic response in TA1535” value [3, 24] was “negative”, the “Mutagenic response in TA1535” value ([3]; listed as NMPA) was “not positive” and the “Mutagenic response in WP2 uvrA (pKM101)” value [10, 24] was “positive”. For the same molecule, the “Mutagenic response in WP2 uvrA (pKM101)” value ([10]; listed as NMPA) was “mutagenic”, the “Effectiveness of time of preincubation” value [10] was 60min = 30min and the “Mutagenicity/genotoxicity … in vitro” value [15] was “Mutagenic/genotoxic in yeast, TK6, HepaRG cells”. For the same molecule, the Mutagenicity/genotoxicity in yeast [16] was “Mutagenic/genotoxic in yeast, TK6, HepaRG cells”, the “Mutagenic response in TA1537” value ([18]; any activation condition and preincubation time, listed as N-nitroso-methylphenylamine) was “positive” and the “Effectiveness of time of preincubation” value ([18]; strain TA1537, 30 vs 60 min) was 60min = 30min. The “Effectiveness of hamster vs. rat S9s for each positive strain” value ([18]; strain TA1537, H = hamster liver S9, R = rat liver S9) was “H only”.
For CN(CCCC(=O)O)N=O [SM-7, 4-[Methyl(nitroso)amino] butanoic acid], the AI limit [6] is given as 1500 ng/day, the “CPCA Potency Category (PC)” value [7] is given as “PC4” and the “Mutagenicity/genotoxicity … in vitro” value [15, 20] is given as “Mutagenic/genotoxic in yeast, TK6, HepaRG cells ([Mehta and Von Borstel, 1984]; [Li et al., 2022]; [Seo et al., 2023])”. The Mutagenicity/genotoxicity in yeast [16, 23] was “Mutagenic/genotoxic in yeast, TK6, HepaRG cells ([Mehta and Von Borstel, 1984]; [Li et al., 2022]; [Seo et al., 2023])”.
With CCCCN(CCCC)N=O [SM-9, N,N-Dibutylnitrous amide] the “Effectiveness of time of preincubation” value ([3]; strain TA1535) was 60min = 30min, the “Effectiveness of time of preincubation” value [9] was 30min ≥60min and the “Effectiveness of time of preincubation” value [10] was 60min ≥30min. The IARC classification [11] was “Group 2B” and the “Ames response (all S9-mediated except where noted)” value [5] was “Positive”.
In the case of O=NN(c1ccccc1)c1ccccc1 [SM-11, N,N-Diphenylnitrous amide], the IARC classification [11] is given as “Group 3”.
In the case of CCOC(CN(CC(OCC)OCC)N=O)OCC [SM-12, N,N-Bis(2,2-diethoxyethyl)nitrous amide], the “Specificity for G:C or A:T target tester strains” value [8] was “positive only in G:C detecting strains”, the “Mutagenic response in TA1535” value [3] was “only positive strain” and the “More effective %S9 in S9 mix of more effective S9 (H or R)” value ([3]; strain TA1535, 10% vs 30% S9 in the S9 mix) was 30% only. The “Effectiveness of time of preincubation” value ([3]; strain TA1535) was 60min = 30min, the “Effectiveness of hamster vs. rat S9s for each positive strain” value ([3]; strain TA1535, H = hamster liver S9, R = rat liver S9) was “H only” and the Carcinogenicity in rats [19] was “noncarcinogenic in rats”.
